Test results as given in patent US20030068383A1, “Time release nutritional supplement” (priority 2001, published 2003).

How the values were obtained:
[1] = Acid damage to Ribose loaded into 1% cross-linked resin with boiling water; assay type: physicochemical; conditions: 5.9 grams Ribose
[2] = ingested dose, human body; cited from earlier work

SMILES | Fate of Ribose within the resin matrix ([1]; 2 grams 1% cross-linked sulfonated resin, 10 grams water preheated to boiling) | Fate of Ribose within the resin matrix ([1]; 2 grams sulfonated resin ion exchanged with Li or K salt, 10 grams water) | Dose typically associated with side effects (diarrhea, gas, flatulence, nausea, stomach cramps) [2]
O=C[C@H](O)[C@H](O)[C@H](O)CO [Ribose, D-Ribose] | destroyed | active and useful | 
CN(CC(=O)O)C(=N)N [creatine, Creatine] |  |  | over 5 grams
